In patent US6884596B2, “Screening and therapeutic methods for promoting wakefulness and sleep” (The Regents of the University of California, priority 2000, dated 2005):

Columns and labels:
[1] = system: AMPA receptor-mediated thalamic oscillatory activity; assay: AMPA receptor-driven oscillatory activity, extracellular recording from RTN in thalamic slices; design: species or system Sprague-Dawley rats
Method: (§1) Horizontal thalamic slices (400 μm) were prepared from Sprague-Dawley rats (postnatal rats 13-15) using a vibratome (Leica, VTlOOOS). The slices were transferred to a recording chamber after at least 1 hr recovery, and were superfused with artificial cerebrospinal fluid (aCSF) equilibrated with 95% 02/5% CO2 at 0.5 ml/mm. The aCSF contained (in mM): NaCl 126, KCl2.5, NaH2PO4 1.25, CaCl2 2, MgSO4 0.63, NaHCO3 26, and glucose 10. All experiments were carried out in the presence of 10 μM bicuculline maleate and cytochrome c (100 μg/ml) at 34° C. A glass electrode filled with 2 M NaCl was positioned in the nucleus of reticular thalamus (RTN), and extracellular recording was made in response to stimulation of the internal capsule (1-50 μA) every 20-30 sec. After establishing stable oscillatory activity, PrRP was applied for 15-20 min. Paired Student's t-Test was used for statistical analysis. The data were digitized at 1-5 kHz with the Neuronal Activity Acquisition Program (Eclectek Enterprise).
The bar on the left indicates the duration of peptide application. The traces at the bottom show representative responses before and in the presence of PrRP, taken at the time points indicated with arrow heads. […]

[2] = system: sleeping Sprague-Dawley rats; assay: EEG/EMG sleep/wake recording in sleeping rats after i.c.v. infusion; assay type: in vivo, rat
Method: To determine if PrRP modulates sleep/wake or arousal states, varying doses of PrRP were injected i.c.v. into sleeping rats. EEG and EMG were recorded for 150 min in three groups, each consisting of 6 rats, that received either vehicle, 1 nmol PrRP, or 10 nmol PrRP. Analyses were conducted across five consecutive 30-min epochs; vehicle or PrRP were injected at the end of the second epoch. Vehicle-treated rats spent a substantial portion of the entire testing period asleep with characteristic EEG/EMG recordings. EEG and EMG recordings were made from Male Sprague-Dawley rats (300-400 g, Sasco, Oregon, Wis.) according to the method described previously (Berridge et al., J. Neurosci., 16:6999-7009 (1996)).
Rats were housed in pairs for at least 7-days prior to surgery with ad lib access to food and water on an 11:13 hour light:dark cycle (lights on 7:00 a.m.). Approximately 5 μl of vehicle or PrRP31 dissolved in vehicle ([…]) was infused intracerebroventricularly through a pre-implanted cannula (Berridge et al., supra (1996)). Artificial extracellular fluid (147 mM NaCl, 1.3 mM CaCl2, 0.9 mM MgCl2, 2.5 mM KCl, 5.0 mM NaH2PO4; pH 7.4) plus 200 μg/ml cytochrome c served as vehicle. Infusions were made over a 2-min period using a microprocessor-controlled infusion pump (Harvard Apparatus, South Natick, Mass.). Cortical EEG (ECoG) from the frontal cortex and EMG from the dorsal neck muscles were recorded for 60 min prior to infusion and 90 min following infusion. To be scored as a distinct epoch, the appropriate ECoG and EMG activity patterns needed to persist for a minimum of 15 sec. Time spent in each state was scored and totaled for the five 30 min epochs of the observation period, two during the preinfusion period and three during the post-infusion period. The location of the infusion needle was verified morphologically after each experiment. Data were only used for analysis when EEG recordings were electrically adequate and infusion needle placement was accurate. Statistical analysis was performed using a two-way mixed-design ANOVA with drug treatment as the between-subjects variable and time as the within-subjects variable. Post-hoc analyses were conducted using Tukey's HSD test.
FIGS. 7B and 7C show the effects of varying concentrations of PrRP infused into the lateral ventricle on total time spent awake (FIG. 7B) and slow-wave slept (FIG. 7C). Symbols represent mean±SEM of the time (sec) spent in the two different behavioral state categories of six animals per 30-min epoch. PRE1 and PRE2 represent pre-infusion epochs. POST1-POST3 represent post-infusion epochs. Vehicle-treated rats spent a substantial proportion of the testing period asleep.

[3] = system: NMDA receptor-mediated thalamic oscillatory activity; assay: NMDA receptor-driven oscillatory activity in thalamic slices (low Mg2+ aCSF with CNQX); design: species or system Sprague-Dawley rats; conditions: 10 μM; low Mg2+ (0.1 mM) aCSF with 10 μM CNQX; n=4
Method: as §1
It was next investigated whether the suppression of RTN oscillatory activity by PrRP is the consequence of AMPA receptor modulation or some general cellular effect. […] The above experiment was thus repeated in a low Mg^2+ (0.1 mM)-aCSF containing 10 μM of the AMPA receptor antagonist CNQX.

[4] = molecular target: T1, PrRP receptor (Homo sapiens, UniProt P49683); conditions: mammalian cells recombinantly expressing PrRP receptor; cited from earlier work
T1 construct: expressed in transfected cells
T1 sequence (P49683 1-370): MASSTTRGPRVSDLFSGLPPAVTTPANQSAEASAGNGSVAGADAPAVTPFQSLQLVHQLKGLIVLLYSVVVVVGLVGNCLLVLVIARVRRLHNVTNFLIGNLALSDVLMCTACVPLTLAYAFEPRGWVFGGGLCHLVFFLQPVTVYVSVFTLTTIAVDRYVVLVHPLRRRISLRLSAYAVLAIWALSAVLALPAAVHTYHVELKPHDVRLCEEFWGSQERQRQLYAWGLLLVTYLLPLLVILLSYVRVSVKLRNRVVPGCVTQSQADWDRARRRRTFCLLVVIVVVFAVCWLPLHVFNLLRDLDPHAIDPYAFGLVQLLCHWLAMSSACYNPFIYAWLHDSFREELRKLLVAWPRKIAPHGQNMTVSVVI

[5] = molecular target: T2, GPR10 (Homo sapiens, UniProt P49683); conditions: cells transfected with GPR10; cited from earlier work
T2 sequence (P49683 1-370): T1 sequence (P49683 1-370)

[6] = system: GAERS (Genetic Absence Epilepsy Rats from Strasbourg); assay: absence seizure activity (spike and wave discharges, EEG) in GAERS after ICV injection; assay type: in vivo, rat
Method: Electroencephalogram (EEG) recordings and intracerebroventricular (ICV) injection into GAERS were performed essentially as described in Liu et al., Brain Res. 545:1-7 (1991). Briefly, six male GAERS (300-400 g) were implanted stereotaxically (AP=−0.8, ML=1.2, CV=3 mm, with bregma as reference) with a permanent stainless steel cannula under pentobarbital anesthesia (40 mg/kg i.p.). All rats were also implanted bilaterally with 4 stainless-steel electrodes at the frontal and parietal cortex and connected to a microconnector. Both the guide cannulae and EEG electrodes were anchored to the skull using retaining screws and dental acrylic cement.
After one week of recovery, stainless steel injection cannulae were introduced into the guide cannulae so as to extend 2-4 mm beyond their tips. Injection cannulae were connected to a 10 μl microsyringe driven by a pump. Five microliters saline or peptides at various concentrations were microinjected over 1 min through the cannulae while taking EEG recordings continuously throughout the duration of the experiment, in freely moving animals. During EEG recordings the rats were carefully watched and were prevented from falling asleep by gentle sensory stimulation. Seizure frequency was determined as a cumulative duration of spike and wave discharges per consecutive 20 minute periods (seconds of seizure activity per 20 minute recording) after the initial injection. Statistical analysis was performed using the Wilcoxon test.
PrRP was administered intracerebroventricularly into GAERS rats. EEG was taken throughout the course of the experiment and time spent in seizures (spike and wave discharges (SWD) duration) was tabulated for 20 minute intervals from the initial infusion of either aCSF control or various peptide concentrations. Data from six animals receiving the same treatment were pooled. In comparison to aCSF control, PrRP was able to dose-dependently suppress seizure activity in this animal model (FIGS. 5A-5D). […] This seizure suppressing activity remained significant 60 to 80 minutes after peptide injection.
The chart calibration was 200 microV/1 sec.

[7] = molecular target: T2, GPR10; conditions: read-out: apparent affinity for GPR10; cited from earlier work
[8] = system: rat anterior pituitary cells; conditions: rat anterior pituitary cells in vitro; cited from earlier work

## Prolactin Releasing Peptide [PrRP]
[1]; 10 μM, with DL-APV, bicuculline
  maximum suppression of number of oscillations: approximately 40%
[1]; 20 μM, compared with 10 μM
  inhibition of number of oscillations: comparable degree of inhibition
[2]; 1 nmol i.c.v., post-infusion epochs
  total time spent awake: only a trend
[2]; 10 nmol i.c.v.
  conversion to the awake state: nearly complete
  duration of awake state: lasted for well over an hour
  slow-wave sleep: near-complete suppression
[2]; 10 nmol i.c.v., post-infusion epochs (POST1, POST2)
  total time spent awake: significantly increased
[2]; injected during sleep phase
  onset of normal waking EEG/EMG patterns: within minutes
[3]
  effect on NMDA receptor-driven oscillation: no discernible effect
[4]
  arachidonic acid metabolite release: leads to activation of arachidonic acid metabolite release
[5]
  calcium mobilization: leads to calcium mobilization
[6]; 10 nmol ICV, after 40 minutes
  SWD duration, recovery: returned to baseline
[6]; 10 nmol ICV, first 20 minutes
  SWD duration: reduced by half
[6]; 50 nmol ICV
  reduction of seizure activity: 75%
[6]; 100 nmol ICV, at 20 minutes
  reduction of seizure activity: ~100%
[6]; all peptide concentrations (10-100 nmol ICV)
  other mobility or behavioral changes: No other mobility or behavioral changes were observed

## IRPVGRF [PrRP(25-31)]
[7]
  Kd: 200 nM
[5]
  calcium mobilization: mobilizes calcium

## SRAHQHSMEIRTPDINPAWYAGRGIRPVGRF [PrRP-31]
[7]
  Kd: ~1 nM
[8]
  prolactin-releasing activity: having prolactin-releasing activity

## TPDINPAWYAGRGIRPVGRF [PrRP-20]
[7]
  Kd: ~1 nM
[8]
  prolactin-releasing activity: having prolactin-releasing activity
